Results reported in patent US11000033B2, “Ketone or oxime compound, and herbicide” (NISSAN CHEMICAL CORPORATION, priority 2014, dated 2021).

What was measured:
Type in all cases: in vivo
[1] = system: Avena fatua; experiment: Test Example 5: herbicidal effect by foliage application, plastic box (symbol I); settings: 320 g/ha, 3 weeks after application
Summary of the method: (§1)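 Post-emergence spray; diluvial soil (sterilized), ~1.5 cm seed cover; greenhouse 25–30° C; 14-day-old plants; water-diluted emulsion at predetermined dose; visual score at 3 wk post-treatment.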

[2] = system: Apera spica-venti; experiment: Test Example 4: herbicidal effect by soil treatment (symbol L); settings: for L (Apera spica-venti) herbicidal effect grade: application herbicide amount 320 g/ha
Summary of the method: (§2)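 Seeds were sown in sterilized diluvial soil, covered with about 1.5 cm of soil, and the soil surface was sprayed with a water-diluted emulsion of the compound at a predetermined rate. Plants grew in a greenhouse at 25° C. to 30° C.; effects were scored visually 3 weeks after application.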

[3] = system: Alopecurus myosuroides; experiment: Test Example 5: herbicidal effect by foliage application, plastic box (symbol J); settings: 320 g/ha, 3 weeks after application
Summary of the method: as §1

[4] = system: wheat; experiment: Test Example 4: effect on crop by soil treatment (symbol e); settings: for e (wheat) effect on crop grade: application herbicide amount 320 g/ha
Summary of the method: (§3)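 Crop seed is sown in spots together with several weed species in a box of sterilized diluvial soil. It is covered by about 1.5 cm of soil and kept in a greenhouse held between 25° C. and 30° C.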

[5] = system: Stellaria media; experiment: Test Example 5: herbicidal effect by foliage application, plastic box (symbol P); settings: 320 g/ha, 3 weeks after application
Summary of the method: as §1

[6] = system: Stellaria media; experiment: Test Example 4: herbicidal effect by soil treatment (symbol P); settings: for P (Stellaria media) herbicidal effect grade: application herbicide amount 320 g/ha
Summary of the method: as §2

[7] = system: Chenopodium album; experiment: Test Example 5: herbicidal effect by foliage application, plastic box (symbol O); settings: 320 g/ha, 3 weeks after application
Summary of the method: as §1

[8] = system: soybean; experiment: Test Example 4: effect on crop by soil treatment (symbol d); settings: for d (soybean) effect on crop grade: application herbicide amount 320 g/ha
Summary of the method: as §3

[9] = system: rapeseed; experiment: Test Example 4: effect on crop by soil treatment (symbol g); settings: for g (rapeseed) effect on crop grade: application herbicide amount 320 g/ha
Summary of the method: as §3

[10] = system: Apera spica-venti; experiment: Test Example 5: herbicidal effect by foliage application, plastic box (symbol L); settings: 320 g/ha, 3 weeks after application
Summary of the method: as §1

[11] = system: Digitaria ciliaris; experiment: Test Example 5: herbicidal effect by foliage application, plastic box (symbol F); settings: 320 g/ha, 3 weeks after application
Summary of the method: as §1

[12] = system: corn; experiment: Test Example 5: effect on crop by foliage application, plastic box (symbol c); settings: 320 g/ha, 3 weeks after application
Summary of the method: (§4)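 Diluvial soil, sterilized and boxed (21 × 13 × 7 cm), received spot-sown seed covered by about 1.5 cm soil; plants were then greenhouse-grown at 25–30° C.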

[13] = system: Lolium multiflorum Lam.; experiment: Test Example 5: herbicidal effect by foliage application, plastic box (symbol K); settings: 320 g/ha, 3 weeks after application
Summary of the method: as §1

[14] = system: rice plant; experiment: Test Example 5: effect on crop by foliage application, plastic box (symbol b); settings: 320 g/ha, 3 weeks after application
Summary of the method: as §4

[15] = system: Setaria viridis; experiment: Test Example 4: herbicidal effect by soil treatment (symbol G); settings: for G (Setaria viridis) herbicidal effect grade: application herbicide amount 320 g/ha
Summary of the method: as §2

[16] = system: Echinochloa crus-galli var. crus-galli; experiment: Test Example 3: herbicidal effect by foliage application, Wagner pot (symbol H); settings: application herbicide amount 320 g/ha
Summary of the method: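 Rating at 3 weeks post-spray, by defined criteria. Treatment: emulsion diluted with water to a predetermined amount, applied evenly to foliage of 14-day-old plants raised in alluvial soil flooded 0.1–0.5 cm deep at 25–30 °C, rice co-sown.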

[17] = system: directly sowed rice plant; experiment: Test Example 3: effect on crop by foliage application, Wagner pot (symbol b); settings: application herbicide amount 320 g/ha
Summary of the method: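 Wagner pot (1/10000 are), alluvial soil, submerged 0.1–0.5 cm; sown E. crus-galli var. crus-galli, L. chinensis, C. difformis, rice; greenhouse 25–30 °C.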

Compound	I: Avena fatua, herbicidal effect grade [1]	L (Apera spica-venti) herbicidal effect grade [2]	J: Alopecurus myosuroides, herbicidal effect grade [3]	e (wheat) effect on crop grade [4]	P: Stellaria media, herbicidal effect grade [5]	P (Stellaria media) herbicidal effect grade [6]	O: Chenopodium album, herbicidal effect grade [7]	d (soybean) effect on crop grade [8]	g (rapeseed) effect on crop grade [9]	L: Apera spica-venti, herbicidal effect grade [10]	F: Digitaria ciliaris, herbicidal effect grade [11]	c: corn, effect on crop grade [12]	K: Lolium multiflorum Lam., herbicidal effect grade [13]	b: directly sowed rice plant, effect on crop grade [14]	G (Setaria viridis) herbicidal effect grade [15]	herbicidal effect on H (Echinochloa crus-galli var. crus-galli), grade 0-5 [16]	effect on crop b (directly sowed rice plant), grade 0-5 [17]	also measured
CCCCCCCON=C(C)CC1CC(O)=C(c2c(C)cc(C)cc2C)C1=O (stereo not shown) [1-054]	3 (Herbicidal ratio of 40% or higher and lower than 70%)	1 (Herbicidal ratio of 5% or higher and lower than 20%)	4 (Herbicidal ratio of 70% or higher and lower than 90%)	0 (Herbicidal ratio of 5% or lower (almost no effect))	0 (Herbicidal ratio of 5% or lower (almost no effect))	0 (Herbicidal ratio of 5% or lower (almost no effect))	0 (Herbicidal ratio of 5% or lower (almost no effect))	0 (Herbicidal ratio of 5% or lower (almost no effect))	1 (Herbicidal ratio of 5% or higher and lower than 20%)	3 (Herbicidal ratio of 40% or higher and lower than 70%)	2 (Herbicidal ratio of 20% or higher and lower than 40%)	0 (Herbicidal ratio of 5% or lower (almost no effect))	5 (Herbicidal ratio of 90% or more (almost completely withered))	4 (Herbicidal ratio of 70% or higher and lower than 90%)	5 (Herbicidal ratio of 90% or more (almost completely withered))	5 (Herbicidal ratio of 90% or more (almost completely withered))	5 (Herbicidal ratio of 90% or more (almost completely withered))	
COCCON=C(C)CC1CC(O)=C(c2c(C)cc(C)cc2C)C1=O (stereo not shown) [1-041]	5 (Herbicidal ratio of 90% or more (almost completely withered))	5 (Herbicidal ratio of 90% or more (almost completely withered))	5 (Herbicidal ratio of 90% or more (almost completely withered))	4 (Herbicidal ratio of 70% or higher and lower than 90%)	3 (Herbicidal ratio of 40% or higher and lower than 70%)	0 (Herbicidal ratio of 5% or lower (almost no effect))	3 (Herbicidal ratio of 40% or higher and lower than 70%)	1 (Herbicidal ratio of 5% or higher and lower than 20%)	4 (Herbicidal ratio of 70% or higher and lower than 90%)	5 (Herbicidal ratio of 90% or more (almost completely withered))	5 (Herbicidal ratio of 90% or more (almost completely withered))	5 (Herbicidal ratio of 90% or more (almost completely withered))	5 (Herbicidal ratio of 90% or more (almost completely withered))	5 (Herbicidal ratio of 90% or more (almost completely withered))	5 (Herbicidal ratio of 90% or more (almost completely withered))	5 (Herbicidal ratio of 90% or more (almost completely withered))	5 (Herbicidal ratio of 90% or more (almost completely withered))	
CCC(CC1CC(O)=C(c2c(C)cc(C)cc2C)C1=O)=NOC (stereo not shown) [1-038]	5 (Herbicidal ratio of 90% or more (almost completely withered))	5 (Herbicidal ratio of 90% or more (almost completely withered))	5 (Herbicidal ratio of 90% or more (almost completely withered))	3 (Herbicidal ratio of 40% or higher and lower than 70%)	0 (Herbicidal ratio of 5% or lower (almost no effect))	0 (Herbicidal ratio of 5% or lower (almost no effect))	0 (Herbicidal ratio of 5% or lower (almost no effect))	1 (Herbicidal ratio of 5% or higher and lower than 20%)	4 (Herbicidal ratio of 70% or higher and lower than 90%)	5 (Herbicidal ratio of 90% or more (almost completely withered))	5 (Herbicidal ratio of 90% or more (almost completely withered))	4 (Herbicidal ratio of 70% or higher and lower than 90%)	5 (Herbicidal ratio of 90% or more (almost completely withered))	5 (Herbicidal ratio of 90% or more (almost completely withered))	5 (Herbicidal ratio of 90% or more (almost completely withered))	5 (Herbicidal ratio of 90% or more (almost completely withered))	5 (Herbicidal ratio of 90% or more (almost completely withered))	
CON=C(C)C(c1ccc(F)cc1)C1CC(O)=C(c2c(C)cc(C)cc2C)C1=O (stereo not shown) [1-049]	0 (Herbicidal ratio of 5% or lower (almost no effect))	0 (Herbicidal ratio of 5% or lower (almost no effect))	0 (Herbicidal ratio of 5% or lower (almost no effect))	0 (Herbicidal ratio of 5% or lower (almost no effect))	0 (Herbicidal ratio of 5% or lower (almost no effect))	0 (Herbicidal ratio of 5% or lower (almost no effect))	0 (Herbicidal ratio of 5% or lower (almost no effect))	0 (Herbicidal ratio of 5% or lower (almost no effect))	0 (Herbicidal ratio of 5% or lower (almost no effect))	0 (Herbicidal ratio of 5% or lower (almost no effect))	0 (Herbicidal ratio of 5% or lower (almost no effect))	0 (Herbicidal ratio of 5% or lower (almost no effect))	0 (Herbicidal ratio of 5% or lower (almost no effect))	0 (Herbicidal ratio of 5% or lower (almost no effect))	0 (Herbicidal ratio of 5% or lower (almost no effect))	0 (Herbicidal ratio of 5% or lower (almost no effect))	0 (Herbicidal ratio of 5% or lower (almost no effect))	
CC#CC(=O)OC1=C(c2c(C)cc(C)cc2C)C(=O)C(CC(C)=NOC)C1 (stereo not shown) [1-095]																5 (Herbicidal ratio of 90% or more (almost completely withered))	5 (Herbicidal ratio of 90% or more (almost completely withered))	I: Avena fatua, herbicidal effect (criteria 0-5) [1]: 5 (Herbicidal ratio of 90% or more (almost completely withered)); L: Apera spica-venti, herbicidal effect grade ([2]; 320 g/ha): 5 (Herbicidal ratio of 90% or more (almost completely withered)); J: Alopecurus myosuroides, herbicidal effect (criteria 0-5) [3]: 5 (Herbicidal ratio of 90% or more (almost completely withered)); e: wheat, effect grade on crop ([4]; 320 g/ha): 4 (Herbicidal ratio of 70% or higher and lower than 90%); P: Stellaria media, herbicidal effect (criteria 0-5) [5]: 2 (Herbicidal ratio of 20% or higher and lower than 40%); P: Stellaria media, herbicidal effect grade ([6]; 320 g/ha): 0 (Herbicidal ratio of 5% or lower (almost no effect)); O: Chenopodium album, herbicidal effect (criteria 0-5) [7]: 0 (Herbicidal ratio of 5% or lower (almost no effect)); d: soybean, effect grade on crop ([8]; 320 g/ha): 0 (Herbicidal ratio of 5% or lower (almost no effect)); g: rapeseed, effect grade on crop ([9]; 320 g/ha): 4 (Herbicidal ratio of 70% or higher and lower than 90%); L: Apera spica-venti, herbicidal effect (criteria 0-5) [10]: 5 (Herbicidal ratio of 90% or more (almost completely withered)); F: Digitaria ciliaris, herbicidal effect (criteria 0-5) [11]: 5 (Herbicidal ratio of 90% or more (almost completely withered)); c: corn, effect on crop (criteria 0-5) [12]: 5 (Herbicidal ratio of 90% or more (almost completely withered)); K: Lolium multiflorum Lam., herbicidal effect (criteria 0-5) [13]: 5 (Herbicidal ratio of 90% or more (almost completely withered)); b: directly sowed rice plant, effect on crop (criteria 0-5) [14]: 5 (Herbicidal ratio of 90% or more (almost completely withered)); G: Setaria viridis, herbicidal effect grade ([15]; 320 g/ha): 5 (Herbicidal ratio of 90% or more (almost completely withered))
